Reference: patent US20090137613A1, “PHARMACEUTICALLY ACCEPTABLE SALTS AND POLYMORPHIC FORMS” (priority 2006, published 2009)
Where a name gives a salt, the structure may show the parent alone. Read-outs that look alike come from different tables or passages of the source. Each block holds one compound with its values, some of them ahead of it.

What was measured:
[1] = cited from earlier work; for bioavailability: oral, valacyclovir in comparison to acyclovir
[2] = Thermogravimetric analysis (TGA), thermally induced weight loss / thermal stability; format: physicochemical
From the text: Polymorph I of valacyclovir mesylate according to the present invention is further characterised by a typical TGA thermograph, or substantially the same TGA thermograph, as shown in FIG. 3. As used herein, the term “TGA” refers to thermogravimetric analysis. […] TGA is restricted in transitions that involve either a gain or a loss of mass and it is most commonly used to study desolvation processes and compound decomposition.
FIG. 3: Typical TGA thermograph of polymorph I of valacyclovir mesylate obtained by using thermogravimetric analysis (TGA) using TGA 7 manufactured by Perkin-Elmer. The experiments were done under flow of nitrogen (35 ml/min) and heating rate was 10° C./min.

[3] = Dynamic vapour sorption (DVS), moisture sorption / hygroscopicity; format: physicochemical
From the text: DVS is a measure of the water vapour or moisture sorption of a material under varying conditions of humidity and it can be used as a measure of the hygroscopicity of a given material. The DVS data as described herein was obtained using the Dynamic Vapour Sorption (DVS) methodology developed by Surface Measurement Systems (SMS) Ltd. for the rapid quantitative analysis of the water sorption properties of solids including pharmaceutical materials. The Surface Measurement Systems DVS instrument rapidly measures uptake and loss of moisture by flowing a carrier gas at a specified relative humidity (RH) over a sample (1 mg-1.5 g) suspended from the weighing mechanism of a Cahn D-200 ultra sensitive recording microbalance. This particular microbalance is used because it is capable of measuring changes in sample mass lower than 1 part in 10 million and provides the long-term stability as required for the accurate measurement of vapour sorption phenomena, which may take from minutes to days to complete depending upon the sample size and material. Indeed, a major factor in determining the water sorption behaviour of materials is the need to establish rapid water sorption equilibrium, therefore the DVS instrument allows sorption behaviour to be accurately determined on very small sample sizes (typically 10 mg), thus minimising the equilibration time required. One of the most critical factors for any instrumentation used for investigating moisture sorption behaviour is the temperature stability of the measurement system. The main DVS instrument systems as used herein are, therefore, housed in a precisely controlled constant temperature incubator with a temperature stability of ±0.1° C. This ensures very good instrument baseline stability as well as accurate control of the relative humidity generation. The required relative humidities are generated by accurately mixing dry and saturated vapour gas flows in the correct proportions using mass flow controllers. Humidity and temperature probes are situated just below the sample and reference holders to give independent verification of system performance. The microbalance mechanism is very sensitive to sorption and desorption of moisture. A constant dry gas purge to the balance head is, therefore, provided to give the best performance in terms of baseline stability. The purge flow is manually controlled such that in the event of a power failure, condensation of moisture in the balance head cannot occur. The DVS instrument is fully automated.

[4] = cited from earlier work
[5] = at about 90% relative humidity (RH)
[6] = temperature range of about 30-175° C.

Compound: Nc1nc2c(ncn2COCCO)c(=O)[nH]1 [Acyclovir, 9-[(2-hydroxyethoxy)methyl]guanine]
bioavailability [1]: low bioavailability

Compound: CC(C)[C@H](N)C(=O)OCCOCn1cnc2c(=O)[nH]c(N)nc21 [valacyclovir hydrochloride]
solubility in water [4]: moderately soluble

Compound: CC(C)[C@H](N)C(=O)OCCOCn1cnc2c(=O)[nH]c(N)nc21 [valacyclovir, L-valine 2-[(2-amino-1,6-dihydro-6-oxo-9H-purin-9-yl)methoxy]ethyl ester]
absorption from the gastrointestinal tract ([1]; after oral administration): rapidly absorbed
bioavailability [1]: improved bioavailability

Compound: valacyclovir fumarate [Polymorph I of valacyclovir fumarate]
stable to a temperature of (thermal stability confirmed by TGA) ([2]; solid form as prepared): about 200 °C
TGA weight loss ([2]; temperature range of about 30-100° C.): about 0.9%

Compound: valacyclovir fumarate [Polymorph II of valacyclovir fumarate]
stable to a temperature of (thermal stability confirmed by TGA) [2]: about 150 °C
TGA weight loss ([2]; temperature range of about 30-140° C.): about 9.2%

Compound: valacyclovir maleate [Polymorph I of valacyclovir maleate]
stable to a temperature of (thermal stability confirmed by TGA) ([2]; solid form as prepared): about 160 °C
TGA weight loss ([2]; temperature range of about 30-150° C.): about 5.3%

Compound: valacyclovir mesylate [Polymorph I of valacyclovir mesylate]
stable to a temperature of (thermal stability confirmed by TGA) ([2]; solid form as prepared): about 200 °C
TGA weight loss ([2]; temperature range of about 30-165° C.): about 2.5%
dynamic vapour sorption (DVS) [3, 5]: about 3.6%

Compound: valacyclovir phosphate [Polymorph II of valacyclovir phosphate]
TGA weight loss [2, 6]: about 6.8%

Further lines, results first:

stable to a temperature of (thermal stability confirmed by TGA) ([2]; solid form as prepared): about 200 °C
TGA weight loss ([2]; temperature range of about 200° C.): no TGA weight loss
dynamic vapour sorption (DVS) [3, 5]: about 0.4%
Compound: CC(C)[C@H](N)C(=O)OCCOCn1cnc2c(=O)[nH]c(N)nc21 [Polymorph I of valacyclovir base, L-valine 2-[(2-amino-1,6-dihydro-6-oxo-9H-purin-9-yl)methoxy]ethyl ester]

stable to a temperature of (thermal stability confirmed by TGA) ([2]; solid form as prepared): about 180 °C
TGA weight loss ([2]; temperature range of about 30-80° C.): about 2.6%
Compound: valacyclovir citrate [Polymorph I of valacyclovir citrate]

stable to a temperature of (thermal stability confirmed by TGA) ([2]; solid form as prepared): about 200 °C
TGA weight loss ([2]; temperature range of about 30-200° C.): no TGA weight loss
dynamic vapour sorption (DVS) ([3]; at about 80% RH): about 1.0%
dynamic vapour sorption (DVS) [3, 5]: about 5.1%
Compound: valacyclovir phosphate [Polymorph I of valacyclovir phosphate]

TGA weight loss [2, 6]: about 2.1%
dynamic vapour sorption (DVS) [3, 5]: about 5.2%
Compound: valacyclovir phosphate [Polymorph III of valacyclovir phosphate]
